Measurements from patent publication US9677063B2, “Use of a cysteine protease of plasmodium vivax” (SAMSUNG ELECTRONICS CO., LTD., priority 2009, dated 2017).
Square brackets hold non-standard residues; d marks the D form. Peptide text beside a SMILES is read from it. * marks the point of attachment. Sta = CC(C)C[C@H](N)[C@@H](O)CC(=O)O; AMC = Cc1cc(=O)oc2cc(N*)ccc12; Isovaleryl = CC(C)CC(=O)*; Cbz = O=C(OCc1ccccc1)*

Assays:
[1] = system: VX-4; assay: Substrate hydrolysis kinetics for vivapains (peptide-MCA substrates); format: biochemical, Plasmodium vivax
Description: (§1) Cysteine protease activity was ascertained by the hydrolysis of benzyloxycarbonyl-L-leucyl-L-arginine 4-methyl-coumaryl-7-amide (Z-LR-MCA) (Peptide International, Louisville, Ky.). Enzyme (xVX, 30 μl; 200 nM) was added to 100 mM sodium acetate (220 μl, pH 5.5) containing 5 μM Z-LR-MCA and 10 mM DTT. The release of fluorescence was assessed at excitation and emission wavelengths of 355 nm and 460 nm with a SpectraMAX Gemini fluorometer (Molecular Devices, Sunnyvale, Calif.).
(§2) The release of MCA was monitored over 10 min at room temperature as described above. Activities were compared as fluorescence over time. The kinetic constants Km and Vmax were determined using GraphPad software.

[2] = system: VX-4; assay: Determination of pH optimum of enzyme activity against peptide substrates; format: biochemical, Plasmodium vivax; settings: 5 μM substrate, 10 mM DTT, 37° C., pH 4.5-8.5
Description: Enzyme activity was measured as described above.
FIG. 3(C) relates to determination of pH optimum. […] Activity was measured at 37° C. each against Z-FR-MCA (▪), Z-LR-MCA (∘), and Z-RR-MCA (●). Maximal activity was presented as 100%. As shown in FIG. 3(C), the enzymatic activity was highest at pH 5.5. The pH-optimum was substantially different with a substrate containing a basic AA at P2 (Z-RR-MCA) with maximal activity at pH 6.5, and activity seen above pH 8.

[3] = system: VX-3; assay: Substrate hydrolysis kinetics for vivapains (peptide-MCA substrates); format: biochemical, Plasmodium vivax; settings: pH 5.5, 6.5, 7.5
Description: as §1, with “Enzyme (xVX, 30 μl; 200 nM) was added to 100 mM sodium acetate (220 μl, pH 5.5) containing 5 μM Z-LR-MCA and 10 mM DTT.” left out
as §2

[4] = system: VX-2; assay: as above; format: biochemical, Plasmodium vivax; settings: pH 5.5, 6.5, 7.5
Description: as §1, §2

[5] = system: P. vivax plasmepsin 4 (PvPM4); assay: Autocatalytic processing of recombinant PvPM4 (SDS-PAGE); format: biochemical, Plasmodium vivax; settings: pepstatin A 10 μM, 3 h at 37° C.
Description: The reactants were analyzed by 12% SDS-PAGE.

[6] = system: VX-4 mutants containing E180A; assay: Activity of mutant VX-4s against peptide substrates; format: biochemical, Plasmodium vivax; settings: 100 mM Tris-HCl pH 7.5, 10 mM DTT, 37° C.
Description: Site-directed mutagenesis was performed using a QuickChange II Site-Directed Mutagenesis Kit (Stratagene, Calif.). A pair of complementary primers with 39 bases was designed and a mutation to replace Ala90 to Ile (A90I), Gly154 to Ser (G154S) or Glu180 to Ala (E180A) was placed in the middle of the primers, as follows: […]
Parental DNA inserted in pQE-30 (Qiagen, Calif.) as prepared in Example 2 was amplified using Pfu Ultra HF DNA polymerase with these primers for 16 cycles in a DNA thermal cycler (Perkin-Elmer). After digestion of the parental DNA with Dpn I, the amplified DNA with nucleotide substitution was incorporated and transformed into E. coli XL1-Blue (Stratagene). The mutations were verified by DNA sequencing. Double and triple point mutagenesis of A90I, G154S, and E180A were also done as described above. Each mutant plasmid was transformed into competent E. coli M15 (pREP4) cells (Qiagen). Each recombinant protein was individually expressed, purified and refolded as described above.
In assays against peptide substrates, all of the mutants harboring A901 and G154S by single or multiple substitutions maintained the pH-dependent substrate specificity of wild-type VX-4. Conversely, those containing E180A lost activity against Z-RR-MCA at pH 7.5 (FIG. 4(C)). […]

[7] = system: rVX-4; settings: fully processed 28 kDa rVX-4
Description: The purified rVX-4 was refolded and activated, and aliquots collected every 30 min were analyzed by 12% SDS-PAGE with Coomassie staining (left). The proteolytic activity of fully processed rVX-4 was analyzed by a gelatin gel-zymogram (right).
For activity gel electrophoresis, the obtained refolded rVX-4 was mixed with SDS-PAGE sample buffer lacking 2-mercaptoethanol and subjected to 12% SDS-PAGE co-polymerized with 0.1% gelatin. The gel was washed with 2% Triton X-100 (30 min), incubated overnight with 100 mM sodium acetate (pH 5.5) containing 10 mM DTT at 37° C. and stained with Coomassie Blue.

[8] = system: rVX-4; settings: E-64 1 μM, in presence of pepstatin A, pH 5.0-7.0, rVX-4 50 nM, 3 h at 37° C.
Description: Recombinant PvPMs expressed in E. coli cells were purified by Ni-NTA chromatography (Qiagen) and refolded as described above. rVX-4 (50 nM) was incubated with PvPMs (20 μg each) in 100 mM sodium acetate (pH 5.0-5.5), 100 mM sodium phosphate (pH 6.0-6.5), or 100 mM Tris-HCl (pH 7.0-7.5) supplemented with 10 mM DTT for 3 h. The experiments were also performed in the presence of E-64 (1 μM) and/or pepstatin A (10 μM, Sigma-Aldrich).
The inventors examined possible roles for VX-4 during maturation of recombinant PvPM4 (rPvPM4), which was expressed in E. coli as above, and the results are shown in FIG. 5(A). […] Recombinant PvPM 4 (20 μg) was incubated with rVX-4 (50 nM) supplemented with 10 mM DTT at different pH values with or without pepstatin A (PepA, 10 μM) or E-64 (1 μM) for 3 h at 37° C. The reactants were analyzed by 12% SDS-PAGE.

[9] = system: rVX-4; settings: rVX-4 1 μM, pH 5.5, 6.5, 7.5, 30 min room temperature, substrate Z-LR-MCA
Description: The optimal pH was assessed in 100 mM sodium acetate (pH 4.5-5.5), 100 mM sodium phosphate (pH 6.0-6.5) and 100 mM Tris-HCl (pH 7.0-8.5). The enzymes (50 nM) were added to each buffer supplemented with 10 mM DTT and 5 μM Z-L-phenylalanyl-L-arginine 4-methyl-coumaryl-7-amide (Z-FR-MCA), Z-leucyl-L-arginine-MCA (Z-LR-MCA), or Z-L-arginyl-L-arginine 4-methyl-coumaryl-7-amide (Z-RR-MCA) (Peptide International). The appropriate buffers were separately employed as controls at each pH. Enzyme activity was measured as described above. The effects of reducing agents were examined under various concentrations of GSH, and pH stability was examined at pH 5.0 and 8.0 by incubating rVX-4 at 37° C. in the appropriate buffer.
Residual activities (%) were determined using Z-LR-MCA as a substrate.

[10] = rVX-4, pH 7.5 compared with pH 5.5

## Cc1cc(=O)oc2cc(NC(=O)[C@H](CCCNC(=N)N)NC(=O)[C@H](CC(C)C)NC(=O)OCc3ccccc3)ccc12 [Z-LR-MCA, benzyloxycarbonyl-L-leucyl-L-arginine 4-methyl-coumaryl-7-amide]
[1]; [10]
  decrease of kcat/Km at pH 7.5: 5.6 fold
[2]
  pH of maximal enzyme activity: 5.5

## Cc1cc(=O)oc2cc(NC(=O)[C@H](CCCNC(=N)N)NC(=O)[C@H](Cc3ccccc3)NC(=O)OCc3ccccc3)ccc12 [Z-FR-MCA, benzyloxycarbonyl-L-phenylalanyl-L-arginine 4-methyl-coumaryl-7-amide] (Cbz-Phe-Arg-{AMC})
[3]
  hydrolysis by rVX-3: could not hydrolyze
[1]; pH 7.5
  hydrolysis by rVX-4: not hydrolyzed
[4]
  hydrolysis by rVX-2: could not hydrolyze
[2]
  pH of maximal enzyme activity: 5.5

## CC(C)CC(=O)N[C@H](C(=O)N[C@H](C(=O)N[C@@H](CC(C)C)[C@@H](O)CC(=O)N[C@@H](C)C(=O)N[C@@H](CC(C)C)[C@@H](O)CC(=O)O)C(C)C)C(C)C [pepstatin A] (Isovaleryl-VV[Sta]A[Sta]-OH)
[5]
  effect on autocatalytic processing of rPvPM4: completely blocked

## Cc1cc(=O)oc2cc(NC(=O)[C@H](CCCNC(=N)N)NC(=O)[C@H](CCCNC(=N)N)NC(=O)OCc3ccccc3)ccc12 [Z-RR-MCA, benzyloxycarbonyl-L-arginyl-L-arginine 4-methyl-coumaryl-7-amide] (Cbz-Arg-Arg-{AMC})
[6]
  activity of E180A-containing VX-4 mutants against substrate: lost activity
[3]
  hydrolysis by rVX-3: could not hydrolyze
[1]; [10]
  increase of kcat/Km at pH 7.5: 2.6 fold
[4]
  hydrolysis by rVX-2: could not hydrolyze
[2]
  pH of maximal enzyme activity: 6.5

## CC(C)C[C@H](NC(=O)[C@H]1O[C@@H]1C(=O)O)C(=O)NCCCCN=C(N)N (relative stereo) [E-64, trans-epoxysuccinyl-L-leuciloamido-(4-guanidino) butane]
[7]
  inhibition of protease activity in gelatin-gel electrophoresis: completely inhibited
[8]
  effect on rVX-4 cleavage of rPvPM4: specifically and significantly inhibited
[9]
  E-64 concentration needed to inhibit rVX-4 depending on pH: increased concentrations of E-64 to inhibit rVX-4 at higher pH
